Measured values published in US20070249620A1, “Urea Derivative” (priority 2004, published 2007).

Legend:
mouse DGAT1 = target: T1, mouse DGAT1 (Mus musculus, UniProt Q9Z2A7); experiment: DGAT1 inhibitory effect test (microsome fraction, [14C]-oleoyl-CoA, triglyceride radioactivity by TLC); type: biochemical; details: 0.5 h; concentration of the test compound 0.1 μg/ml; mouse DGAT1 microsomes, 23° C., 30 minutes; read-out: Inhibitory ratio
T1 construct: made in house; host or cells: insect cells (High Five, Sf9, Sf21, etc.), baculovirus expression system (Invitrogen)
T1 sequence (Q9Z2A7 1-498): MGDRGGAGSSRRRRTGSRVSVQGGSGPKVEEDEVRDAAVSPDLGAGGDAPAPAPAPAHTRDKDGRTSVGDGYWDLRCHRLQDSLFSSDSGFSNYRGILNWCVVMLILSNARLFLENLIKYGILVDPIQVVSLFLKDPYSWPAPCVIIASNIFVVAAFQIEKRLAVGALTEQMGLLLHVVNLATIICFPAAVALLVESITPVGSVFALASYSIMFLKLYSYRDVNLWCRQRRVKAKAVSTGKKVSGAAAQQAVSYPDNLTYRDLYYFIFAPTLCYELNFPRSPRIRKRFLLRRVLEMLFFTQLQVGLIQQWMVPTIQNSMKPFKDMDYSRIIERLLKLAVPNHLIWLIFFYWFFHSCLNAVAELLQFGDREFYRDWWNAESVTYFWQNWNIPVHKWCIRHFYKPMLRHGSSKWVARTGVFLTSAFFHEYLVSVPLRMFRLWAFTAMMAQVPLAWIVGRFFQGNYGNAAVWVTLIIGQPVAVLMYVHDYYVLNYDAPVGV
In short: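 Inhibition was scored from radiolabelled triglyceride separated by TLC, relative to vehicle and net of a 0-min background. The reaction ran for 30 min at room temperature (23 °C) in Tris-HCl pH 8.0 with MgCl2, BSA and Triton X-100. Substrates were 30 μM [14C]-oleoyl-CoA and 0.5 mM dioleoylglycerol, with mouse DGAT1 microsomes from baculovirus-infected insect cells as enzyme.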

| melting point | inhibition at 0.1 µg/mL (mouse DGAT1) | SMILES |
| --- | --- | --- |
| 207 to 209 °C | ≥ 50% | COc1ccccc1NC(=O)Nc1ccc(N2CCN(C(=O)Nc3ncccc3C)CC2)cc1 [Example 309, 4-{4-[3-(2-methoxy-phenyl)-ureido]-phenyl}-piperazine-1-carboxylic acid (3-methyl-pyridin-2-yl)-amide] |
| 186 to 187 °C | ≥ 50% | Cc1nc(NC(=O)Nc2ccc(N3CCN(C(=O)Nc4ccc(OCCO)cc4Cl)CC3)cc2)sc1C [Example 272, 4-{4-[3-(4,5-dimethyl-thiazol-2-yl)-ureido]-phenyl}-piperazine-1-carboxylic acid [2-chloro-4-(2-hydroxy-ethoxy)-phenyl]-amide] |
| 184 to 185 °C | ≥ 50% | Cc1nc(NC(=O)Nc2ccc(N3CCN(C(=O)Nc4ccc(OCCO)cc4Cl)CC3)nc2)sc1C [Example 271, 4-{5-[3-(4,5-dimethyl-thiazol-2-yl)-ureido]-pyridin-2-yl}-piperazine-1-carboxylic acid [2-chloro-4-(2-hydroxy-ethoxy)-phenyl]-amide] |
| 204 to 205 °C | ≥ 50% | COc1cc(NC(=O)Nc2ccc(N3CCN(C(=O)Nc4ncc(F)cc4F)CC3)cc2)cc(OC)c1 [Example 341, 4-{4-[3-(3,5-dimethoxy-phenyl)-ureido]-phenyl}-piperazine-1-carboxylic acid (3,5-difluoro-pyridin-2-yl)-amide] |
| 166 to 171 °C | ≥ 50% | O=C(Nc1ccc(C2CCN(C(=O)Nc3ccc(OCCO)cc3Cl)CC2)cc1)Nc1ccccc1F [Example 263, 4-{4-[3-(2-fluoro-phenyl)-ureido]-phenyl}-piperidine-1-carboxylic acid [2-chloro-4-(2-hydroxy-ethoxy)-phenyl]-amide] |
| 166 to 168 °C | ≥ 50% | COc1ccccc1NC(=O)Nc1ccc(C2CCN(C(=O)Nc3ccc(OCCO)cc3Cl)CC2)cc1 [Example 261, 4-{4-[3-(2-methoxy-phenyl)-ureido]-phenyl}-piperidine-1-carboxylic acid [2-chloro-4-(2-hydroxy-ethoxy)-phenyl]-amide] |
| 120 to 125 °C | ≥ 50% | COc1ccccc1NC(=O)Nc1ccc(C2=CCN(C(=O)Nc3ccc(OCCO)cc3Cl)CC2)cc1 [Example 258, 4-{4-[3-(2-methoxy-phenyl)-ureido]-phenyl}-3,6-dihydro-2H-pyridine-1-carboxylic acid [2-chloro-4-(2-hydroxy-ethoxy)-phenyl]-amide] |
| 209 to 210 °C | ≥ 50% | COC(=O)Cc1ccc(OC(=O)N2CCN(c3ccc(NC(=O)Nc4cc(C)ccc4OC)cc3)CC2)c(Cl)c1 [Example 393, 4-{4-[3-(2-methoxy-5-methyl-phenyl)-ureido]-phenyl}-piperazine-1-carboxylic acid 2-chloro-4-methoxycarbonylmethyl-phenyl ester] |
| 118 to 120 °C | ≥ 50% | COc1ccc(C)cc1NC(=O)Nc1ccc(N2CCN(C(=O)Nc3ccc(OCCO)cc3Cl)CC2)c(F)c1 [Example 253, 4-{2-fluoro-4-[3-(2-methoxy-5-methyl-phenyl)-ureido]-phenyl}-piperazine-1-carboxylic acid [2-chloro-4-(2-hydroxy-ethoxy)-phenyl]-amide] |
| 129 to 134 °C | ≥ 50% | CCOc1cccc(NC(=O)Nc2ccc(C3CCN(C(=O)Nc4ccc(OCCO)cc4Cl)CC3)cc2)c1 [Example 264, 4-{4-[3-(3-ethoxy-phenyl)-ureido]-phenyl}-piperidine-1-carboxylic acid [2-chloro-4-(2-hydroxy-ethoxy)-phenyl]-amide] |
| 206 to 208 °C | ≥ 50% | COc1ccc(F)cc1NC(=O)Nc1ccc(N2CCN(C(=O)Nc3ncccc3C)CC2)cc1 [Example 296, 4-{4-[3-(5-fluoro-2-methoxy-phenyl)-ureido]-phenyl}-piperazine-1-carboxylic acid (3-methyl-pyridin-2-yl)-amide] |

More lines, now with the values behind:

| SMILES | melting point | inhibition at 0.1 µg/mL (mouse DGAT1) |
| --- | --- | --- |
| COc1ccc(NC(=O)N2CCN(c3ccc(NC(=O)Nc4cc(C)ccc4OC)cc3)CC2)c(C)c1 [Example 73, 4-{4-[3-(2-methoxy-5-methyl-phenyl)-ureido]-phenyl}-piperazine-1-carboxylic acid (4-methoxy-2-methyl-phenyl)-amide] | 193 to 195 °C | ≥ 50% |
| CCOc1ccc(Cl)cc1NC(=O)Nc1ccc(N2CCN(C(=O)Nc3c(C)cccc3C)CC2)cc1 [Example 104, 4-{4-[3-(5-chloro-2-ethoxy-phenyl)-ureido]-phenyl}-piperazine-1-carboxylic acid (2,6-dimethyl-phenyl)-amide] | 144 to 146 °C | ≥ 50% |
| COc1ccc(C)cc1NC(=O)Nc1ccc(N2CCN(C(=O)Nc3ccc(C(=O)O)cc3Cl)CC2)cc1 [Example 181, 3-chloro-4-[(4-{4-[3-(2-methoxy-5-methyl-phenyl)-ureido]-phenyl}-piperazine-1-carbonyl)-amino]-benzoic acid] | 209 to 221 °C | ≥ 50% |
| COc1ccc(C)cc1NC(=O)Nc1ccc(N2CCN(C(=O)Nc3ccc(C(C)C)cc3C(F)(F)F)CC2)cc1 [Example 178, 4-{4-[3-(2-methoxy-5-methyl-phenyl)-ureido]-phenyl}-piperazine-1-carboxylic acid (4-isopropyl-2-trifluoromethyl-phenyl)-amide] | 134 to 135 °C | ≥ 50% |
| COc1ccc(NC(=O)N2CCN(c3ccc(NC(=O)Nc4cc(F)ccc4OC)cc3)CC2)c(C)c1 [Example 113, 4-{4-[3-(5-fluoro-2-methoxy-phenyl)-ureido]-phenyl}-piperazine-1-carboxylic acid (4-methoxy-2-methyl-phenyl)-amide] | 216 to 218 °C | ≥ 50% |
| Cc1ccc(F)c(NC(=O)Nc2ccc(N3CCN(C(=O)OC(C)(C)C)CC3)cc2)c1 [Example 37, 4-{4-[3-(2-fluoro-5-methyl-phenyl)-ureido]-phenyl}-piperazine-1-carboxylic acid tert-butyl ester] | 211 to 214 °C | ≥ 50% |
| COc1ccc(C)cc1NC(=O)Nc1ccc(N2CCN(C(=O)Nc3ccc(OCCO)cc3Cl)C(C)C2)cc1 (stereo not drawn) [Example 252, 4-{4-[3-(2-methoxy-5-methyl-phenyl)-ureido]-phenyl}-2-methyl-piperazine-1-carboxylic acid [2-chloro-4-(2-hydroxy-ethoxy)-phenyl]-amide] | 129 to 131 °C | ≥ 50% |
| O=C(Nc1ccc2c(c1)CCN(C(=O)Nc1ccc(OCCO)cc1C(F)(F)F)C2)Nc1ccccc1F [Example 227, 6-[3-(2-fluoro-phenyl)-ureido]-3,4-dihydro-1H-isoquinoline-2-carboxylic acid [4-(2-hydroxy-ethoxy)-2-trifluoromethyl-phenyl]-amide] | 162 to 164 °C | ≥ 50% |
| COc1ccc(C)cc1NC(=O)Nc1ccc(N2CCN(C(=O)Nc3c(F)cccc3C(F)(F)F)CC2)nc1 [Example 139, 4-{5-[3-(2-methoxy-5-methyl-phenyl)-ureido]-pyridin-2-yl}-piperazine-1-carboxylic acid (2-fluoro-6-trifluoromethyl-phenyl)-amide] | 221 to 222 °C | ≥ 50% |
| O=C(Nc1ccc(N2CCN(C(=O)Nc3ccc(OCCO)cc3C(F)(F)F)CC2)nc1)Nc1ccccc1F [Example 222, 4-{5-[3-(2-fluoro-phenyl)-ureido]-pyridin-2-yl}-piperazine-1-carboxylic acid [4-(2-hydroxy-ethoxy)-2-trifluoromethyl-phenyl]-amide] | 193 to 194 °C | ≥ 50% |
| COc1cccc(NC(=O)Nc2ccc(N3CCN(C(=O)Nc4ccc(OCCO)cc4Cl)CC3)cc2)c1 [Example 249, 4-{4-[3-(3-methoxy-phenyl)-ureido]-phenyl}-piperazine-1-carboxylic acid [2-chloro-4-(2-hydroxy-ethoxy)-phenyl]-amide] | 198 to 201 °C | ≥ 50% |
| O=C(Nc1ccc(N2CCN(C(=O)Nc3ccc(OCCO)cc3C(F)(F)F)CC2)cc1)Nc1cccc2c1OCCO2 [Example 244, 4-{4-[3-(2,3-dihydro-1,4-benzodioxin-5-yl)-ureido]-phenyl}-piperazine-1-carboxylic acid [4-(2-hydroxy-ethoxy)-2-trifluoromethyl-phenyl]-amide] | 127 to 129 °C | ≥ 50% |
| COc1ccc(F)cc1NC(=O)Nc1ccc(N2CCN(C(=O)Nc3ccc(C)cc3Cl)CC2)cc1 [Example 123, 4-{4-[3-(5-fluoro-2-methoxy-phenyl)-ureido]-phenyl}-piperazine-1-carboxylic acid (2-chloro-4-methyl-phenyl)-amide] | 233 to 235 °C | ≥ 50% |
